Earlier results as cited in patent publication US20110053879A1, “[…] AND AMRUBICIN TO TREAT LUNG CANCER” (priority 2008, published 2011).

Tests used:
[1] = a specific crystalline form (JP 11-222497 A)
stage III or IV non-SCLC = conditions: 45 mg/m^2 on days 1 to 3; chemotherapy-naive patients; intent-to-treat analysis
human tumor xenografts = conditions: several human tumor xenografts implanted in nude mice
extensive-stage SCLC = conditions: 45 mg/m^2 on days 1 to 3; chemotherapy-naive patients; intent-to-treat analysis
[2] = preclinical studies
[3] = phase II trial

| Structure (SMILES) | heat stability [1] | response rate, stage III or IV non-SCLC (stage III or IV non-SCLC) [%] | antitumor activity compared with doxorubicin (human tumor xenografts) | strength as a DNA intercalator relative to doxorubicin (weaker) (DNA) | response rate, extensive-stage SCLC (extensive-stage SCLC) [%] | cardiotoxicity [2] | grade 3 or 4 anemia [3] [%] | grade 3 or 4 anorexia [3] [%] | grade 3 or 4 leukopenia [3] [%] | grade 3 or 4 nausea/vomiting [3] [%] | grade 3 or 4 neutropenia [3] [%] | grade 3 or 4 thrombocytopenia [3] [%] |
| --- | --- | --- | --- | --- | --- | --- | --- | --- | --- | --- | --- | --- |
| CC(=O)[C@]1(N)Cc2c(O)c3c(c(O)c2[C@@H](O[C@H]2C[C@H](O)[C@H](O)CO2)C1)C(=O)c1ccccc1C3=O.Cl [Amrubicin hydrochloride] | excellent in heat stability | – | – | – | – | – | – | – | – | – | – | – |
| CC(=O)[C@]1(N)Cc2c(O)c3c(c(O)c2[C@@H](O[C@H]2C[C@H](O)[C@H](O)CO2)C1)C(=O)c1ccccc1C3=O [amrubicin, (7S,9S)-9-Acetyl-9-amino-7-[(2-deoxy-β-D-erythro-pentapyranosyl)oxy]-7,8,9,10-tetrahydro-6,11-dihydroxy-5,12-nephthacenedione] | – | 25 | more potent antitumor activity than doxorubicin | approximately 1/10 | 79 | almost no cardiotoxicity | 23.0 | 4.9 | 52.5 | 4.9 | 72.1 | 14.8 |
| CC(O)[C@]1(N)Cc2c(O)c3c(c(O)c2[C@@H](O[C@H]2C[C@H](O)[C@H](O)CO2)C1)C(=O)c1ccccc1C3=O (stereo partly shown) [amrubicinol] | – | – | – | approximately 1/10 | – | – | – | – | – | – | – | – |
